Test results as given in ChEMBL document CHEMBL1135773, “Purine and pyrimidine (P2) receptors as drug targets” (J Med Chem, 2002).

Assays:
P2X purinoceptor 1 = biological target: T1, P2X purinoceptor 1 (Homo sapiens, UniProt P51575); test: Antagonist activity against recombinant human P2X purinoceptor 1 (P2X1 ); format: functional
T1 sequence (P51575 whole entry): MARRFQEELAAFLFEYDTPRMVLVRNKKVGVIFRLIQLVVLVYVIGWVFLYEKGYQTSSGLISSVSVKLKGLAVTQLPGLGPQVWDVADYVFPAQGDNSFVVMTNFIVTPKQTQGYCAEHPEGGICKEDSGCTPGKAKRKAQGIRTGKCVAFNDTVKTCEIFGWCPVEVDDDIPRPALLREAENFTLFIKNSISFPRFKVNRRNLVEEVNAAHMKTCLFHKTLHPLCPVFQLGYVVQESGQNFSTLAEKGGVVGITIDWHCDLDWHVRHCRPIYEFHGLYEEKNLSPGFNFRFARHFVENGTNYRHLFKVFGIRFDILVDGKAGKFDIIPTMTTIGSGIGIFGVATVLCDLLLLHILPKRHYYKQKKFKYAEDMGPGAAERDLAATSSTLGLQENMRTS

P2X purinoceptor 4 [1] = biological target: T2, P2X purinoceptor 4 (Rattus norvegicus, UniProt P51577); test: Antagonist activity against recombinant rat P2X purinoceptor 4 (P2X4) at 30 uM, expressed in Xenopus oocytes; format: functional, cell-based, Oocyte
T2 sequence (P51577 whole entry): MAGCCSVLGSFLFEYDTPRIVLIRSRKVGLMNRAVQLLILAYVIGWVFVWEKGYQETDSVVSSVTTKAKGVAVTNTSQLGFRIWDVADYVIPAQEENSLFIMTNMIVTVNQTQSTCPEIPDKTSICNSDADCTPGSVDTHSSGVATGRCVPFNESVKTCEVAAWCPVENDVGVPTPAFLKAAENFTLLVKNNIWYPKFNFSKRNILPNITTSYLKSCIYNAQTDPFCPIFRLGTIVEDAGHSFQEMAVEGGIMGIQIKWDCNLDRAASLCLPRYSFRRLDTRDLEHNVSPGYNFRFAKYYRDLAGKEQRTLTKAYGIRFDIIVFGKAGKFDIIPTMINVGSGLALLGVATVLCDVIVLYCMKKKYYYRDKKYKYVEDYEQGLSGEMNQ

P2Y purinoceptor 2 = P2Y purinoceptor 2 (Homo sapiens, UniProt P41231); test: Evaluated for agonist activity against phospholipase C coupled recombinant human P2Y purinoceptor 2 (P2Y2); format: functional
Sequence of P2Y purinoceptor 2 (P41231 whole entry): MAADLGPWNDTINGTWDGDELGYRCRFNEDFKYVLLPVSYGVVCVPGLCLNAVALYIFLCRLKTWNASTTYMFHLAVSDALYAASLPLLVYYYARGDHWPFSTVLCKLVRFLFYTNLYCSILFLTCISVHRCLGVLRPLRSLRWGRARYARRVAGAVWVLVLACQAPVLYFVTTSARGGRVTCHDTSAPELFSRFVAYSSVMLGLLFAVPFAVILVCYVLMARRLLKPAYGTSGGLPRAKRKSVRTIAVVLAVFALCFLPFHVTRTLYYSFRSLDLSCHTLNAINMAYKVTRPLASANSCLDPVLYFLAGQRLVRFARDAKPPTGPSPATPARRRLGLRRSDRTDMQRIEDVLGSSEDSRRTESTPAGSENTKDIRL

P2X purinoceptor 5 = biological target: T3, P2X purinoceptor 5 (Rattus norvegicus, UniProt P51578); test: Antagonist activity against recombinant rat P2X purinoceptor 5 (P2X5); format: functional
T3 sequence (P51578 whole entry): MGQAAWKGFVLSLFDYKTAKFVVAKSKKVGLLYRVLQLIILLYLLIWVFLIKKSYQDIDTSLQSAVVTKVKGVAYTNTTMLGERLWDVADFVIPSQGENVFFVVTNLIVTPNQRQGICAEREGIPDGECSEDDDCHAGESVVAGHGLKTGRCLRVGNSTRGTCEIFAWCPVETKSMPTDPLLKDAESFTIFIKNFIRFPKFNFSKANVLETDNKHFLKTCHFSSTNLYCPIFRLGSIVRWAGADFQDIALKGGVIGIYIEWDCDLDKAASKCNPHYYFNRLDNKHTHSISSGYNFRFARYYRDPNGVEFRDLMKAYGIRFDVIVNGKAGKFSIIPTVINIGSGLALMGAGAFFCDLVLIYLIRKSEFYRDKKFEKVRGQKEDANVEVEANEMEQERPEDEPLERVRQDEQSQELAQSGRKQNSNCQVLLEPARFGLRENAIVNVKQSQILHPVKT

P2X purinoceptor 2 [2] = biological target: P2X purinoceptor 2 (Homo sapiens, UniProt Q9UBL9); test: The compound was evaluated for antagonist activity against recombinant human receptor P2X purinoceptor 2 (P2X2 ); format: functional
Sequence of P2X purinoceptor 2 (Homo sapiens, UniProt Q9UBL9) (Q9UBL9 whole entry): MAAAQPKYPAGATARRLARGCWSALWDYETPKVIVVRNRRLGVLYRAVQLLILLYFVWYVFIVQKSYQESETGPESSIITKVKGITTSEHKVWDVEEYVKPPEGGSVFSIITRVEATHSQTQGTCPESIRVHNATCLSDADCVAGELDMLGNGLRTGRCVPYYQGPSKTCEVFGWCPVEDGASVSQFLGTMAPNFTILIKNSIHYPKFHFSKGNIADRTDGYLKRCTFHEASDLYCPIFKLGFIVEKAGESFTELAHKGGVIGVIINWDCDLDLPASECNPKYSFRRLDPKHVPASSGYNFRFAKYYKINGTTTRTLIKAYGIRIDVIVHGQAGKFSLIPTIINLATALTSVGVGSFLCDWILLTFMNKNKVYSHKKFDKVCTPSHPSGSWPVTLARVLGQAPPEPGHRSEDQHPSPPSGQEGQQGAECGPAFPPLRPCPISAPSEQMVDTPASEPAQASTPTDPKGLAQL

P2X purinoceptor 6 = P2X purinoceptor 6 (Rattus norvegicus, UniProt P51579); test: Antagonist activity against recombinant rat P2X purinoceptor 6 (P2X6 ); format: functional
Sequence of P2X purinoceptor 6 (P51579 whole entry): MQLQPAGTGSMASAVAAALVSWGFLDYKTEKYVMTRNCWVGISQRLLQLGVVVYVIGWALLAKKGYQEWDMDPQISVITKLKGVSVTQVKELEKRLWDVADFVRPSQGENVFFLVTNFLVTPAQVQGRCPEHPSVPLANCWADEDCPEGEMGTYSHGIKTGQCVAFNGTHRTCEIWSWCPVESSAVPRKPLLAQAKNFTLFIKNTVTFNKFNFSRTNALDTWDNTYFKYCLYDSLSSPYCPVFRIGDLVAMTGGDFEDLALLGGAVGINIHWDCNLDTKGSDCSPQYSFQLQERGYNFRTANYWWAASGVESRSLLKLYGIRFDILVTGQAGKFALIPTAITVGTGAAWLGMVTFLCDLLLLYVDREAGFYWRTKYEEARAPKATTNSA

P2X purinoceptor 3 = biological target: T4, P2X purinoceptor 3 (Homo sapiens, UniProt P56373); test: Antagonist activity against recombinant human P2X purinoceptor 3 (P2X3 ); format: functional
T4 sequence (P56373 whole entry): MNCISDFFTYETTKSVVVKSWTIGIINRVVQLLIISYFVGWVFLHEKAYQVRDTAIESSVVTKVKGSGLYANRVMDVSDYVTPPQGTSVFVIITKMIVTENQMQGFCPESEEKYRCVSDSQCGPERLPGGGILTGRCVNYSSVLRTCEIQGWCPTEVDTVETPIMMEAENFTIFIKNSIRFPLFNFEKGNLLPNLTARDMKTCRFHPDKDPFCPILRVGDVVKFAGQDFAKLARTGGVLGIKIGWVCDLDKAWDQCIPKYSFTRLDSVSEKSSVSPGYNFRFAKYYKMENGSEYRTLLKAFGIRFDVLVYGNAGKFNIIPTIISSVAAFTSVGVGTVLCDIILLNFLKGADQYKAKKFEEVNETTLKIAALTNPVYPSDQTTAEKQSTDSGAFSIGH

P2Y purinoceptor 12 = P2Y purinoceptor 12 (Rattus norvegicus, UniProt Q9EPX4); test: Antagonist activity against phospholipase C coupled rat P2Y purinoceptor 12 (P2Y12); format: functional
Sequence of P2Y purinoceptor 12 (Q9EPX4 whole entry): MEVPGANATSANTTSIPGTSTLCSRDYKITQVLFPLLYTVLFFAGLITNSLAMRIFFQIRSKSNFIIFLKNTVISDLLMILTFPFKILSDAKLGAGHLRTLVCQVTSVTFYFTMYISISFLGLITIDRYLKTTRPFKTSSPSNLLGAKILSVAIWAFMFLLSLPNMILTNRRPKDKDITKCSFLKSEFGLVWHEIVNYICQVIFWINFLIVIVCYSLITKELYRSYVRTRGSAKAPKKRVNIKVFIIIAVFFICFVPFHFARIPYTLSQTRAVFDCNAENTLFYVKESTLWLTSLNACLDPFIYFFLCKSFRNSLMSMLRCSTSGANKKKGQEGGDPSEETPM

P2X purinoceptor 2 [3] = biological target: T5, P2X purinoceptor 2 (Rattus norvegicus, UniProt P49653); test: Antagonist activity against recombinant rat receptor P2X purinoceptor 2 (P2X2) at 10 uM, expressed in Xenopus oocytes; format: functional, cell-based, Oocyte
T5 sequence (P49653 whole entry): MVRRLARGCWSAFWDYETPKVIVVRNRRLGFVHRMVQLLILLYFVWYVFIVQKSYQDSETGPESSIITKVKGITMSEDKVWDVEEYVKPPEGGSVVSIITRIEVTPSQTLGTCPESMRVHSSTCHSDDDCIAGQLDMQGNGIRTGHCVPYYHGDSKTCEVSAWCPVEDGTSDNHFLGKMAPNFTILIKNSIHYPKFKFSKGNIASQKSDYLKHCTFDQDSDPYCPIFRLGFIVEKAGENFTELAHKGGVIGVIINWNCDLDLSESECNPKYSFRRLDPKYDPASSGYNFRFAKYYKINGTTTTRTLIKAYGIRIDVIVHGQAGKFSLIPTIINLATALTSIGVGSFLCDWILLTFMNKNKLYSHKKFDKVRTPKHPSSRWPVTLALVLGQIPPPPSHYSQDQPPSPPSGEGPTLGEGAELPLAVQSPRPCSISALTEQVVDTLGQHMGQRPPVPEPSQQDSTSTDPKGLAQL

P2Y purinoceptor 6 = P2Y purinoceptor 6 (Homo sapiens, UniProt Q15077); test: The compound was evaluated for agonist activity against phospholipase C coupled recombinant human P2Y purinoceptor 6 (P2Y6); format: functional
Sequence of P2Y purinoceptor 6 (Q15077 whole entry): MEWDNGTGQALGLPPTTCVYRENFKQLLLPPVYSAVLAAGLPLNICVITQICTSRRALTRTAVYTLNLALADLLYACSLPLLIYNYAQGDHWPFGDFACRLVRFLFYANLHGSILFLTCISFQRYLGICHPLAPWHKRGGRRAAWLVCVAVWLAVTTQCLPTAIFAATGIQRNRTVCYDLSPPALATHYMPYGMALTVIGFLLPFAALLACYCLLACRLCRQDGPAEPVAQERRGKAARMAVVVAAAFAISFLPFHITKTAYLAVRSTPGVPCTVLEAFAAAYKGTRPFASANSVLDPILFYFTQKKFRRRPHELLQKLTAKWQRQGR

[4] = biological target: P2X purinoceptor 7 (Homo sapiens) (UniProt Q99572); test: The compound was evaluated for antagonist activity against recombinant human P2X purinoceptor 7 (P2X7); format: functional
Sequence of P2X purinoceptor 7 (Homo sapiens) (Q99572 whole entry): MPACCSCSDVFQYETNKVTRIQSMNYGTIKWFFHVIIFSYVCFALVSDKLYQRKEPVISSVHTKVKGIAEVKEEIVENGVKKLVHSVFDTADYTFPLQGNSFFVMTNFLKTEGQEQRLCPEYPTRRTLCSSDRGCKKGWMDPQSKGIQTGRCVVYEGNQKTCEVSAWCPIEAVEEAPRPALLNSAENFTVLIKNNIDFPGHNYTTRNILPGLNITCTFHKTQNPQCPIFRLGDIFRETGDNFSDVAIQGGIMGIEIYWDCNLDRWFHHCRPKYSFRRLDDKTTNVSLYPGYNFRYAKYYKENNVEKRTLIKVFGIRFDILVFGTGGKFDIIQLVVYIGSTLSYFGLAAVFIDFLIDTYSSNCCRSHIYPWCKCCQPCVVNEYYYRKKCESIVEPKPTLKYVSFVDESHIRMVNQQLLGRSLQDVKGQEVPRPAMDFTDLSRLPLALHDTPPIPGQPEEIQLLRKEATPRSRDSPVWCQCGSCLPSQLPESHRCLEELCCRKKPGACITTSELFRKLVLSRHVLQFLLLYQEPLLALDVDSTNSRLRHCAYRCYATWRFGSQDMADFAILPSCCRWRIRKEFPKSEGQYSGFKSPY

P2X purinoceptor 4 [5] = biological target: T2, P2X purinoceptor 4; test: Antagonist activity against recombinant rat P2X purinoceptor 4 (P2X4) at 3 uM, expressed in Xenopus oocytes; format: functional, cell-based, Oocyte
P2Y purinoceptor 4 [6] = biological target: P2Y purinoceptor 4 (Homo sapiens, UniProt P51582); test: The compound was evaluated for antagonist activity against phospholipase C coupled recombinant human P2Y purinoceptor 4 (P2Y4); format: functional
Sequence of P2Y purinoceptor 4 (Homo sapiens, UniProt P51582) (P51582 whole entry): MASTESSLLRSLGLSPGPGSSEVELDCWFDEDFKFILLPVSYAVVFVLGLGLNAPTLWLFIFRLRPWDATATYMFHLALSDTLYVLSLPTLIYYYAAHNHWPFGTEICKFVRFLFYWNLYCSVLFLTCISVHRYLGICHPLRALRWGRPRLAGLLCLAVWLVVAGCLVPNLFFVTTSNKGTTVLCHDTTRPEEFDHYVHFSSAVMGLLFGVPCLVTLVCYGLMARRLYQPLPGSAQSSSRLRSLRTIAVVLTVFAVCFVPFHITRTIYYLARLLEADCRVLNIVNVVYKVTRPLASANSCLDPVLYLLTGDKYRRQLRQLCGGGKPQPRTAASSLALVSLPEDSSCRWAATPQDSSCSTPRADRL

P2Y purinoceptor 4 [7] = biological target: P2Y purinoceptor 4 (Rattus norvegicus, UniProt O35811); test: The compound was evaluated for antagonist activity against phospholipase C coupled recombinant rat P2Y purinoceptor 4 (P2Y4); format: functional
Sequence of P2Y purinoceptor 4 (Rattus norvegicus, UniProt O35811) (O35811 whole entry): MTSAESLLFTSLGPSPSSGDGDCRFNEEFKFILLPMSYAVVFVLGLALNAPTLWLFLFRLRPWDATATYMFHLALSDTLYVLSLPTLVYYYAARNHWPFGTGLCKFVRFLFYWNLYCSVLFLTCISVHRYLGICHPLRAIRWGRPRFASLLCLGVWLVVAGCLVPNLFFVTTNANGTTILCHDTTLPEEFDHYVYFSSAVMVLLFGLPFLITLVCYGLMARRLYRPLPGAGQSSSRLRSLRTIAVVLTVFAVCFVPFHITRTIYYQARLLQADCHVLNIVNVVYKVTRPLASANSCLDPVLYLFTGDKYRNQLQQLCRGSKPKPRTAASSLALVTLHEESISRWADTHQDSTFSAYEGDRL

P2X purinoceptor 4 [8] = biological target: T6, P2X purinoceptor 4 (Homo sapiens, UniProt Q99571); test: Antagonist activity against recombinant human P2X purinoceptor 4 (P2X4); format: functional
T6 sequence (Q99571 whole entry): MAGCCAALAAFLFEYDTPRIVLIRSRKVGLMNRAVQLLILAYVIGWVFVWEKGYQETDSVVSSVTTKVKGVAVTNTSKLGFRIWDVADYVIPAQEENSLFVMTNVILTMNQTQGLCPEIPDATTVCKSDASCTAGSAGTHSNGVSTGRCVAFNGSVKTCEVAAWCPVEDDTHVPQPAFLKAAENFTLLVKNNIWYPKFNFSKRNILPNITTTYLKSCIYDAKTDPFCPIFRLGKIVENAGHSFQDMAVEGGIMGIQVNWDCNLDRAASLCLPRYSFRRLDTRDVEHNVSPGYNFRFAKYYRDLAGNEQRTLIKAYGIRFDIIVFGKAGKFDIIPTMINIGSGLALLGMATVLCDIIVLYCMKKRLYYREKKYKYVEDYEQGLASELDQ

Nc1ncnc2c1ncn2[C@@H]1O[C@H](COP(=O)(O)OP(=O)(O)O)[C@@H](O)[C@H]1O [ADENOSINE DIPHOSPHATE]
EC50 (P2X purinoceptor 1): 10 µM | EC50 (P2X purinoceptor 4 [1]): 28 µM | EC50 (P2Y purinoceptor 2): > 100 µM | EC50 (P2X purinoceptor 5): 18 µM | EC50 (P2X purinoceptor 2 [2]): > 100 µM | EC50 (P2X purinoceptor 6): 11 µM | EC50 (P2X purinoceptor 3): > 100 µM | EC50 (P2Y purinoceptor 12): 0.069 µM

CNc1ncnc2c1ncn2[C@H]1C[C@H](OP(=O)(O)O)[C@@H](COP(=O)(O)O)O1
EC50 (P2X purinoceptor 1): 1.15 µM | EC50 (P2X purinoceptor 2 [3]): > 10 µM | EC50 (P2Y purinoceptor 2): > 100 µM | EC50 (P2Y purinoceptor 6): > 100 µM | IC50 [4]: > 30 µM | EC50 (P2X purinoceptor 4 [5]): > 10 µM | EC50 (P2Y purinoceptor 4 [6]): > 100 µM | EC50 (P2Y purinoceptor 12): > 100 µM

Nc1ncnc2c1ncn2[C@@H]1O[C@H](COP(=O)(O)OP(=O)(O)OP(=O)(O)OP(=O)(O)OC[C@H]2O[C@@H](n3cnc4c(N)ncnc43)[C@H](O)[C@@H]2O)[C@@H](O)[C@H]1O [DIADENOSINE TETRAPHOSPHATE]
EC50 (P2X purinoceptor 1): 0.182 µM | EC50 (P2Y purinoceptor 2): 0.72 µM | EC50 (P2Y purinoceptor 4 [7]): 3 µM | EC50 (P2X purinoceptor 4 [8]): 1 µM | EC50 (P2X purinoceptor 2 [2]): 15 µM | EC50 (P2X purinoceptor 3): 0.5 µM
